Data reported in patent US9630964B2, “Fluoro-9-methyl-β-carbolines” (priority 2013, dated 2017).
Values after ≈ are worked out from the molar mass of the structure shown.

Assays:
[1] = physchem; conditions: water
Protocol: Furthermore, the solubility of both compounds in water was determined by preparing concentration series of both compounds in water at room temperature. The concentration at which the compound was barely soluble was determined by external calibration. The corresponding concentration was quantified by HPLC.

[2] = system: DKK1 (Dickkopf-related protein 1); test: Quantitative RT-PCR, relative gene expression of DKK1 in SH-SY5Y cells; type: cell-based, human
Protocol: (§1) SH-SY5Y cell lines, which were provided by the institute of human genetics of university hospital Eppendorf and which they in turn received from Braunschweig resource center, were used again for the RT-PCR experiments (reverse transcriptase polymerase chain reaction) carried out for this purpose.
(§2) The cells were incubated in MEM (Minimum essential medium, Life Technologies) with 10% FCS (fetal calf serum, Biochrom AG) and penicillin/streptomycin (Biochrom AG). The cells were seeded with a density of 1×10^5 cells/cm^2 in 25 cm^2 cell culture bottles (Falcon, cell culture treated) with 5 mL medium. Stock solutions of 10 mmol/L of compounds 9-methyl-β-carboline (AC-002 or 9MβC) and 6-fluoro-9-methyl-β-carboline (AC-102 or 6F9MβC), respectively were prepared in distillated water and sterile filtered. One day after the cell seeding the compounds were added in corresponding amounts (5-55 μL) to reach final concentration in the medium of 10 μM, 20 μM and 30 μM for 6F9MβC and 30 μM, 50 μM and 70 μM for 9MβC. The references received only the corresponding amount of solvent (distilled water). The medium was changed once a week.
(§3) The cells were regularly microscopically examined and harvest after 2, 7 and 14 days of incubation time, washed with PBS and immediately frozen at −80° C.
(§4) The RNA-isolation was done with the HighPure RNA Isolation kit of the company Roche. This isolation includes a DNaseI digestion. The concentration of RNA was measured with nanoDrop spectrometer and the RNA integrity was determined with the aid of the Bioanalyzer 2100 (Agilent). By using random hexamer primers, protector RNA inhibitor (Roche) and transcriptor reverse transcriptase (fermentas), 300 ng RNA were transcribed into cDNA per each sample.
(§5) After the reaction, this run was diluted 1:4 and thereof 2 μL per each quantitative RT-PCR were used. This was performed in a LightCycler 480 under standard conditions in the SybrGreen format with annealing temperatures determined for each primer individually. If possible, exon spanning primers were used.
(§6) The specificity was verified by melting curve analysis and subsequent gel electrophoresis. For each PCR the PCR efficiency and the Cq value was determined by the program LinRegPCR and these were used in further calculations. B2M (β2-microglobulin) was identified from multiple reference genes to be suitable for examination conditions. All results are results relative to the corresponding reference conditions, at which only solvent was administered for the specified period of time (i.e. 2 days, 7 days or 14 days). In FIGS. 5A to 5I are also relative gene expressions (relative to reference conditions) presented. Here, the 2-day exposition is presented in light grey, the 7-day exposition in dark grey and the 14-day exposition in black. Every measured value from FIGS. 5A-5I represents a mean value of 3 independent biologic samples.
Analogous to example 4 RT-PCR experiments with the inventive active agent 7-fluoro-9-methyl-β-carboline (7F9MβC) were also performed for some important cellular factors. The experimental procedure was here identical to the experiments with 6-fluoro-9-methyl-β-carboline and 9-methyl-β-carboline. Here the same (like for 6F9MβC) final concentrations of 30 μM, 50 μM and 70 μM 7F9MβC for the culture medium were employed. The examined factors were BDNF (brain-derived neurotrophic factor), Lif (Leukemia inhibitory factor), DRD2S (short variant of dopamine receptor subtype 2) as well as DKK1 (Dickkopf-related protein 1). […]

[3] = system: Lif (Leukemia inhibitory factor); test: Quantitative RT-PCR, relative gene expression of Lif in SH-SY5Y cells; type: cell-based, human; conditions: 30 μM each
Protocol: as §1, §2, §3, §4, §5, §6
(§7) Analogous to example 4 RT-PCR experiments with the inventive active agent 7-fluoro-9-methyl-β-carboline (7F9MβC) were also performed for some important cellular factors. The experimental procedure was here identical to the experiments with 6-fluoro-9-methyl-β-carboline and 9-methyl-β-carboline. Here the same (like for 6F9MβC) final concentrations of 30 μM, 50 μM and 70 μM 7F9MβC for the culture medium were employed. The examined factors were BDNF (brain-derived neurotrophic factor), Lif (Leukemia inhibitory factor), DRD2S (short variant of dopamine receptor subtype 2) as well as DKK1 (Dickkopf-related protein 1). The same primers, that were already listed for the respective target genes in example 4 (Tab. 1) were used. As already noted, especially BDNF and Lif belongs to the most important factors for cellurar repair processes after traumas in the inner ear.

[4] = system: NT3 (Neurotrophin 3); test: Quantitative RT-PCR, relative gene expression of NT3 in SH-SY5Y cells; type: cell-based, human; conditions: 30 μM each, 14-day exposition
Protocol: as §1
(§8) The cells were incubated in MEM (Minimum essential medium, Life Technologies) with 10% FCS (fetal calf serum, Biochrom AG) and penicillin/streptomycin (Biochrom AG). The cells were seeded with a density of 1×10^5 cells/cm^2 in 25 cm^2 cell culture bottles (Falcon, cell culture treated) with 5 mL medium. […]
(§9) The RNA-isolation was done with the HighPure RNA Isolation kit of the company Roche. […] The concentration of RNA was measured with nanoDrop spectrometer and the RNA integrity was determined with the aid of the Bioanalyzer 2100 (Agilent). […]
(§10) After the reaction, this run was diluted 1:4 and thereof 2 μL per each quantitative RT-PCR were used. This was performed in a LightCycler 480 under standard conditions in the SybrGreen format with annealing temperatures determined for each primer individually. […]
(§11) The specificity was verified by melting curve analysis and subsequent gel electrophoresis. For each PCR the PCR efficiency and the Cq value was determined by the program LinRegPCR and these were used in further calculations. […]

[5] = system: DRD2S (short variant of dopamine receptor subtype 2); test: Quantitative RT-PCR, relative gene expression of DRD2S in SH-SY5Y cells; type: cell-based, human; conditions: 30 μM each
Protocol: as §1, §2, §3, §4, §5, §6, §7

[6] = guinea pig, in vivo
Protocol: For better evaluation of half times of 9-methyl-β-carboline (9MβC), 6-fluoro-9-methyl-β-carboline (6F9MβC) and 7-fluoro-9-methyl-β-carboline (7F9MβC) in animal organism and more precisely in perilymph (the notified site of action), experiments with guinea pigs were conducted. Therefore, the respective active agent (in total 1.4 mg active agent per ear), packed in 40 μl of a hydrogel (18% Poloxamer 407 and 0.6% alginate), was administered at once in front of the membrane of the round window of narcotized guinea pigs. […] After expiry of the desired time (20 min, 2 h, 8 h or 24 h), each time 5 μL perilymph were removed under anesthesia from the top of the cochlea (apex). Subsequently, the animal was killed. Per each time (20 min, 2 h, 8 h or 24 h) measured values were taken of at least ears and averaged.
The concentration of the corresponding active agent in perilymph samples was determined by high-performance liquid chromatography (HPLC, partly also named as high-pressure liquid chromatography) and measurement of auto fluorescence of the respective active agent. For HPLC the eluent consisted to 45% of 90% acetonitrile and to 55% of ammonium acetate (40 mM, pH<5). The flow rate was 0.4 mL/min and injection volume was 10 μL. Each sample was diluted with 60% methanol, if the signal was too strong. After each run the injection needle was washed with 100% isopropanol. The detection limit was 20 fmol/L.
From the determined active agent concentrations the elimination half times were then calculated.

[7] = Degradation in liver homogenate to toxic dimethylated degradation products (HPLC); conditions: rat liver homogenate, conclusion
Protocol: Also a reference measurement with pure 6-fluoro-9-methyl-β-carboline (6F9MβC) was performed.
To simulate the degradation process in the liver, different concentrations (1 μM, 10 μM and 100 μM) of 6-fluoro-9-methyl-β-carboline (6F9MβC) were incubated with homogenized rat liver for an hour under physiological conditions (37° C. in physiological phosphate-buffered sodium chloride solution, PBS). Subsequently, a HPLC measurement of the filtrated extract was carried out.
The characterization of each substance was achieved by high-performance liquid chromatography (HPLC, partly also named as high-pressure liquid chromatography). For HPLC the eluent consisted to 45% of 90% acetonitrile and to 55% of ammonium acetate (40 mM, pH<5). The flow rate was 0.4 mL/min and injection volume was 10 μL. Each sample was diluted with 60% methanol, if the signal was too strong.

[8] = system: quotient Bax/Bcl2; test: Quantitative RT-PCR, quotient Bax/Bcl2 (apoptosis marker) in SH-SY5Y cells; type: cell-based, human; conditions: 30 μM each, except after 2-day exposition
Protocol: as §1, §8, §9, §10, §11

In the case of `Cn1c2ccc(F)cc2c2ccncc21` [6F9MβC, 6-fluoro-9-methyl-β-carboline], the solubility [1] is reported as 29.7 µg/mL (≈ 148 µM), the “DKK1 expression compared to the highest concentration of 9MβC” value ([2]; 10 μM 6F9MβC) is reported as “comparable or even higher” and the “DKK1 expression relative to expression induced by 9MβC” value ([2]; 30 μM each, 14-day exposition) is reported as “comparable”. The “Lif expression relative to expression induced by 9MβC” value ([3]; 2-day exposition) was “approximately three times as high”, the “Lif expression relative to expression induced by 9MβC” value ([3]; 7-day exposition) was “slightly lower” and the “Lif expression relative to expression induced by 9MβC” value ([3]; 14-day exposition) was “approximately twice as high”. The “NT3 expression relative to expression induced by 9MβC” value [4] was “approximately 3.5 times”, the “DRD2S expression relative to expression induced by 9MβC” value ([5]; 2-day exposition) was “higher” and the “DRD2S expression relative to expression induced by 9MβC” value ([5]; 7-day exposition) was “lower”. For the same compound, the “DRD2S expression relative to expression induced by 9MβC” value ([5]; 14-day exposition) was “higher”, the elimination half time [6] was “approximately 6.0 h” and the “metabolization to known toxic (di-methylated) degradation products” value [7] was “does not lead to toxic di-methylated products”. For the same compound, the “metabolization to known toxic (di-methylated) degradation products” value ([7]; listed as 6-fluoro-9-methyl-β-carboline) was “does not metabolize to known toxic degradation products” and the “quotient Bax/Bcl2 compared to 9MβC” value [8] was “significantly lower”.
